Experimental data: ChEMBL document CHEMBL5038667, “Discovery of an Amino Acid-Modified Near-Infrared Aza-BODIPY Photosensitizer as an Immune Initiator for Potent Photodynamic Therapy in Melanoma” (J Med Chem, 2022)
Values after ≈ are worked out from the molar mass of the structure shown. Active and inactive are the calls of the source. No cut-off for these calls is given here.

Assays:
[1] = Aqueous solubility in PBS; format: physicochemical; conditions: buffer
[2] = Lipophilicity, logP of compound; format: physicochemical; conditions: octanol/water
B16-F10 [3] = experiment: Dark toxicity against mouse B16-F10 cells assessed as reduction in cell viability incubated for 16 hrs by CCK-8 assay; format: cell-based; conditions: B16-F10, 16 h
[4] = Phototoxicity against mouse B16-F10 cells assessed as reduction in cell viability incubated for 16 hrs followed by irradiated with 54 J/cm^2 of light dose and further incubated for 24 hrs by CCK-8 assay; format: toxicity, cell-based; conditions: B16-F10, light or radiation study
A-375 = experiment: Dark toxicity against human A-375 cells assessed as reduction in cell viability incubated for 16 hrs by CCK-8 assay; format: functional, cell-based; conditions: A-375, 16 h
[5] = Phototoxicity against human A-375 cells assessed as reduction in cell viability incubated for 16 hrs followed by irradiated with 54 J/cm^2 of light dose and further incubated for 24 hrs by CCK-8 assay; format: toxicity, cell-based; conditions: A-375, light or radiation study
HeLa = experiment: Dark toxicity against human HeLa cells assessed as reduction in cell viability incubated for 16 hrs by CCK-8 assay; format: functional, cell-based
[6] = Phototoxicity against human HeLa cells assessed as reduction in cell viability incubated for 16 hrs followed by irradiated with 54 J/cm^2 of light dose and further incubated for 24 hrs by CCK-8 assay; format: toxicity, cell-based; conditions: light or radiation study
B16-F10 [7] = experiment: Antitumor activity against mouse B16-F10 cells implanted in C57BL/6 mouse assessed as inhibition of tumor growth at 2 mg/kg, iv irradiated with 60 J/cm^2 laser light by IVIS imaging analysis measured upto 48 hrs; format: functional, organism-based; conditions: time hrs <=48
[8] = Toxicity in C57BL/6 mouse harboring mouse B16-F10 cells assessed as change in body weight at 2 mg/kg, iv irradiated with 60 J/cm^2 laser light measured upto 14 days; format: organism-based; conditions: in vivo, 336 h, time <=14 day
B16-F10 [9] = experiment: Antitumor activity against mouse B16-F10 cells implanted in C57BL/6 mouse assessed as tumor regrowth at 2 mg/kg, iv upto after 6 days irradiated with 60 J/cm^2 laser light by IVIS imaging analysis; format: functional, organism-based; conditions: time 6.0 day
B16-F10 [10] = experiment: Antitumor activity against mouse B16-F10 cells implanted in C57BL/6 mouse assessed as tumor destruction at 2 mg/kg, iv irradiated with 60 J/cm^2 laser light measured after 14 days by hematoxylin and eosin based microscopic analysis; format: functional, organism-based; conditions: time 14.0 day

| solubility [1] | logP [2] | SMILES | IC50 (B16-F10 [3]) | IC50 [4] | IC50 (A-375) | IC50 [5] | IC50 (HeLa) | IC50 [6] | Activity (B16-F10 [7]) | Activity [8] | Activity (B16-F10 [9]) | Activity (B16-F10 [10]) |
| --- | --- | --- | --- | --- | --- | --- | --- | --- | --- | --- | --- | --- |
| 158 µM (≈ 139 µg/mL) | -0.74 | COc1ccc(C2=[N+]3C(=Nc4c(-c5ccccc5)c5c(n4[B-]3(F)F)-c3ccc(OCC(=O)N[C@@H](CCC(=O)O)C(=O)O)cc3CC5)C(c3ccccc3)=C2I)cc1 | > 250000 nM | 159 nM | > 250000 nM | 166 nM | > 250000 nM | 78 nM |  |  |  |  |
| 21.8 µM (≈ 16.4 µg/mL) | 0.92 | COc1ccc2c(c1)CCc1c(-c3ccccc3)c3n(c1-2)[B-](F)(F)[N+]1=C(c2ccc(OCC(=O)O)cc2)C(I)=C(c2ccccc2)C1=N3 | > 50000 nM | 346 nM | > 50000 nM | 320 nM | > 50000 nM | 274 nM |  |  |  |  |
| 115 µM (≈ 100 µg/mL) | -0.73 | COc1ccc2c(c1)CCc1c(-c3ccccc3)c3n(c1-2)[B-](F)(F)[N+]1=C(c2ccc(OCC(=O)N[C@@H](CC(=O)O)C(=O)O)cc2)C(I)=C(c2ccccc2)C1=N3 | > 250000 nM | 126 nM | > 250000 nM | 148 nM | > 250000 nM | 55 nM |  |  |  |  |
|  |  | C=Cc1c(C)c2cc3nc(c(CC(=O)O)c4[nH]c(cc5nc(cc1[nH]2)C(C)=C5CC)c(C)c4C(=O)O)[C@@H](CCC(=O)O)[C@@H]3C [CHLORIN E6] |  |  |  |  |  |  | inactive | Non-Toxic |  |  |
| 28.4 µM (≈ 21.4 µg/mL) | 0.94 | COc1ccc(C2=[N+]3C(=Nc4c(-c5ccccc5)c5c(n4[B-]3(F)F)-c3ccc(OCC(=O)O)cc3CC5)C(c3ccccc3)=C2I)cc1 | > 50000 nM | 104 nM | > 50000 nM | 142 nM | > 50000 nM | 56 nM |  |  |  |  |
| < 1 µM | > 3 | COc1ccc(C2=[N+]3C(=Nc4c(-c5ccccc5)cc(-c5ccc(OC)cc5)n4[B-]3(F)F)C(c3ccccc3)=C2I)cc1 | > 50000 nM | 276 nM | > 50000 nM | 254 nM | > 50000 nM | 76 nM | Active | Non-Toxic | Active | Active |
| 110 µM (≈ 96.7 µg/mL) | -0.71 | COc1ccc2c(c1)CCc1c(-c3ccccc3)c3n(c1-2)[B-](F)(F)[N+]1=C(c2ccc(OCC(=O)N[C@@H](CCC(=O)O)C(=O)O)cc2)C(I)=C(c2ccccc2)C1=N3 | > 250000 nM | 212 nM | > 250000 nM | 284 nM | > 250000 nM | 119 nM |  |  |  |  |
| < 1 µM | > 3 | COc1ccc(C2=[N+]3C(=Nc4c(-c5ccccc5)c5c(n4[B-]3(F)F)-c3ccc(OC)cc3CC5)C(c3ccccc3)=C2I)cc1 |  |  |  |  |  |  |  |  |  |  |
